Measurements from patent publication US10238670B2, “9-aminomethyl minocycline compounds and methods of use thereof in urinary tract infection (UTI) treatment” (Paratek Pharmaceuticals, Inc., priority 2016, dated 2019).
Converted amounts (≈) assume the structure as drawn.

How the values were obtained:
[1] = In vitro plasma protein binding (ultrafiltration), monkey plasma; format: in vitro ADME, monkey (Cynomolgus); details: 10-10,000 ng/mL, mean±SD, read-out: mean unbound protein fraction (fu) in plasma
Description: (§1) For human binding studies, plasma was obtained from the blood of three healthy male volunteers. Plasma was defrosted from storage at -20° C. before use, and pools of human plasma were used for all studies. Plasma from mouse, rat, and monkey was supplied by Harlan Laboratories Ltd. (Netherlands), Milan […], Switzerland) and Centre de Primatologie ULP (France), respectively. Protein binding was measured using an ultrafiltration method. To asses the suitability of ultrafiltration, the recovery and free permeation of [^14C]-labelled Compound 1 in PBS buffer were investigated. […] Three 1 mL aliquots per concentration were introduced into […]® devices and spun for 1 min at 2000 g (filtrate ≤500 μL). Samples of the spiked solutions, the filtrate and retentate were quantified by LSC; volumes were determined by weighing. The free permeation of the test compound in PBS was evaluated as follows: Ratio=[Cuf/Cr] with Cuf being the concentration in the ultrafiltrate (ng/mL) and Cr the concentration in the retentate (ng/mL). […] Specifically, concentrations of Compound 1 was determined by an UPLC-MS/MS method. […] Standards and quality control samples were prepared on the day of analysis by adding a 20 μL aliquot of an appropriate standard or QC spiking solution in methanol. A 25 μL aliquot of the internal standard (at 200 ng/mL in methanol) was added to each well except blanks. […] Samples were processed using protein precipitation. A 0.5 mL aliquot of an acetonitrile/ethanol/acetic acid mixture (90:10:0.1, v:v:v) was added to each sample; samples were mixed using a vortex mixer for 10 minutes, and centrifuged 3800 rpm (approximately 2500×g) for 10 min at 10° C. […] The ions monitored for Compound 1 was the parent [M+H]^+ ion at m/z 557.3.0; the product ions at m/z 453.4. […] The quantification was performed using Analyst software and Watson LIMS version 7.2.0.01. Concentrations in QC and study samples were calculated from the resulting peak area ratios and interpolation from the regression equations of the respective calibration curves. The lower limit of quantitation was 5.0 ng/mL for Compound 1.

[2] = tested on: plasma proteins; assay: as above; format: in vitro ADME, monkey (Cynomolgus); details: 10-10,000 ng/mL
Description: as §1

[3] = tested on: K. oxytoca; assay: In vitro MIC, 2010 surveillance isolates; format: cell-based; details: for Cumulative % Inhibition at MIC: N=377
[4] = tested on: E. coli FQR; assay: In vitro MIC, 2010 surveillance isolates; format: cell-based, Escherichia coli; details: N=1264
[5] = tested on: P. mirabilis; assay: In vitro MIC, 2010 surveillance isolates; format: cell-based; details: N=384
[6] = tested on: E. coli (ATCC 25922) biofilm; assay: MBEC assay, inhibition of biofilm formation; format: cell-based, Escherichia coli
Description: The MBEC™ assay (formerly the Calgary biofilm device; Innovotech Inc., Canada) is a well-established high throughput assay for assessment of anti-biofilm activity of test agents in a 96-well format. Within this assay, the biofilm is formed on the plastic pegs of the plate lid. After inoculated media is introduced to the wells of the 96-well plate, the plate is placed in a shaking incubator to generate the necessary shear force for biofilm growth on the pegs. Following a suitable incubation time, the individual biofilms can be treated with varying concentrations of test agents (challenge plate). After the desired treatment time, the remaining biofilm-associated bacteria are retrieved from the pegs through sonication (recovery plate). Serial dilution and/or plating of the recovered bacterial suspension allow for the quantification of test agents' efficacy against pre-formed biofilms. Additionally, readout of the challenge plate from the biofilm treatment can be used to determine MIC values of test agents. The absence of growth in the recovery plate indicates complete biofilm eradication and the lowest concentration of a test agent that achieves this is designated as the minimum biofilm eradication concentration (MBEC). The MBEC™ assay is also amenable to assess potential synergistic effects of combination treatments, as well as efficacy of test agents in inhibiting or inducing biofilm formation.
The MBEC™ plates were inoculated with either 10^5 CFU/mL (low inoculum) or 10^7 CFU/mL (high inoculum) of stationary phase E. coli (ATCC 25922) with simultaneous addition of antibiotics to evaluate the progression of biofilm formation under antibiotic challenge. After 24 hour incubation, the bacteria were recovered and enumerated (as above). FIG. 6. […] FIG. 7.

CN(C)c1cc(CNCC(C)(C)C)c(O)c2c1C[C@H]1C[C@H]3[C@H](N(C)C)C(O)=C(C(N)=O)C(=O)[C@@]3(O)C(O)=C1C2=O [Compound 1, 9-[(2,2-dimethyl-propylamino)-methyl]-minocycline]
fraction unbound [1]: 0.788 ± 0.0726
Mean (SD) Bound Fraction [2]: 21.2 (7.26) %
mean unbound protein fraction (fu) in plasma ([2]; mean±SD): 78.8±7.3%
MIC90 ([3]; Asia/Pac, N=17): 2 µg/mL (≈ 3.59 µM)
MIC90 ([3]; Europe, N=158): 2 µg/mL (≈ 3.59 µM)
MIC90 ([3]; L. Amer, N=25): 4 µg/mL (≈ 7.19 µM)
Cumulative % Inhibition at MIC ([3]; MIC 1 μg/ml): 57.6%
Cumulative % Inhibition at MIC ([3]; MIC 2 μg/ml): 89.4%
Cumulative % Inhibition at MIC ([3]; MIC 4 μg/ml): 95.2%
Cumulative % Inhibition at MIC ([3]; MIC 8 μg/ml): 98.7%
Cumulative % Inhibition at MIC ([3]; MIC 16 μg/ml): 99.7%
Cumulative % Inhibition at MIC ([3]; MIC ≤0.5 μg/ml, listed as head image P00013): 2.1%
Cumulative % Inhibition at MIC ([3]; MIC ≥32 μg/ml): 100%
MIC90 ([3]; N America, N=177): 4 µg/mL (≈ 7.19 µM)
Cumulative % Inhibition at MIC ([4]; MIC 1 μg/ml): 64.4%
Cumulative % Inhibition at MIC ([4]; MIC 2 μg/ml): 89.2%
Cumulative % Inhibition at MIC ([4]; MIC 4 μg/ml): 97.7%
Cumulative % Inhibition at MIC ([4]; MIC 8 μg/ml): 99.6%
Cumulative % Inhibition at MIC ([4]; MIC 16 μg/ml): 99.9%
Cumulative % Inhibition at MIC ([4]; MIC ≤0.5 μg/ml, listed as head image P00008): 29.6%
Cumulative % Inhibition at MIC ([4]; MIC ≥32 μg/ml): 100%
Cumulative % Inhibition at MIC ([5]; MIC 1 μg/ml): 0.3%
Cumulative % Inhibition at MIC ([5]; MIC 2 μg/ml): 1.3%
Cumulative % Inhibition at MIC ([5]; MIC 4 μg/ml): 5.7%
Cumulative % Inhibition at MIC ([5]; MIC 8 μg/ml): 22.9%
Cumulative % Inhibition at MIC ([5]; MIC 16 μg/ml): 56.8%
Cumulative % Inhibition at MIC ([5]; MIC ≤0.5 μg/ml): 0%
Cumulative % Inhibition at MIC ([5]; MIC ≥32 μg/ml): 100%
less bioburden of biofilm compared to control ([6]; 0.183 μg/mL (approx. 15% of MIC)): approx. 2 log units
lower total bioburden of biofilm vs controls ([6]; 0.743 μg/mL, 24 hour incubation): 3-4 log units
reduction of mean biofilm formation compared to controls ([6]; 0.74 p g/mL, high and low inoculum conditions, respectively): 3 to 4 log units
inhibition of biofilm formation ([6]; all doses above the MIC): strongly inhibits biofilm formation
induction of biofilm formation ([6]; sub-MIC doses): fail to induce biofilm formation

CN(C)c1cc(NC(=O)CNC(C)(C)C)c(O)c2c1C[C@H]1C[C@H]3[C@H](N(C)C)C(O)=C(C(N)=O)C(=O)[C@@]3(O)C(O)=C1C2=O [Tigecycline]
% R (resistance) ([3]; Asia/Pac, Eucast breakpoints): 5.9%
MIC90 ([3]; Asia/Pac, N=17): 0.5 µg/mL (≈ 0.854 µM)
% R (resistance) ([3]; Europe, Eucast breakpoints): 0%
MIC90 ([3]; Europe, N=158): 0.5 µg/mL (≈ 0.854 µM)
% R (resistance) ([3]; L. Amer, CLSI breakpoints): 0%
MIC90 ([3]; L. Amer, N=25): 1 µg/mL (≈ 1.71 µM)
% R (resistance) ([3]; N America, CLSI breakpoints): 0%
MIC90 ([3]; N America, N=177): 0.5 µg/mL (≈ 0.854 µM)
